What was measured:
[1] = test system: MCF-7 breast tumor xenografts; assay: In vivo accumulation and release of nested nanoparticles in breast tumors
Experimental: MCF-7 cells (5×10^6) were inoculated in the mammary fat pads of 4- to 6-week-old female nu/nu mice. Mice were implanted with 17β-estradiol pellets subcutaneously. Nanoparticles were administered intravenously and at predetermined timepoints, the mouse was sacrificed and the tumor harvested. Tumor tissues were frozen and sectioned into 7 μm tissue slices using an HM 550 Cryostat (Thermo Fischer Scientific, Waltham, Mass., USA). Tissues were fixed and stained with 4% methanol-free paraformaldehyde for 20 min. Following fixation, samples were washed with PBS. Slides were mounted and tissues imaged using confocal microscopy as previously described. The presence of fluorescence over time, surface intensity plots, and area fraction of the tissue sections were examined using Nikon Elements v4.1 software. For area fraction analysis, the fluorescence emitted by bodipy and rhodamine was obtained from 4 sections from different regions of the tumor (n=3). A ratiometric percentage of area fractions of both fluorophores were extracted from the total area of the image.

[2] = model parameter; from literature for rhodamine, approximated from literature for bodipy; cited from earlier work
[3] = Release kinetics from nested nanoparticles (fluorophore release, zeta potential over time); type: physicochemical; conditions: PBS pH 7.4, 37° C.
Experimental: FIGS. 4A-C. Examination of nested nanoparticle release kinetics. 4A. […] 4B. […] 4C.
Fluorophore release was determined according to a previously published procedure (Woodrow et al., 2009). Absorbance of bodipy and rhodamine were detected using the Synergy H4 Hybrid Reader as described above. In a separate study, nanoparticles were centrifuged at predetermined timepoints, resuspended in water, and the surface charge determined via zeta potential analysis, as described above.

[4] = Finite Element modeling of release kinetics from nested nanoparticles
Excerpt: Due to the fact that the physico-chemical properties of the core and shell, as well as bodipy and rhodamine, are different, a computational method accounting for diffusivities and molecule partitioning was used to analyze release kinetics from nested nanoparticles. Use of the model helped determine that sequential release may be achieved and controlled not only by different diffusion properties in different phases, but also partitioning. […] The model estimated experimental release curves by using partitioning coefficients of 5.0×109 and 2.2×1011 for bodipy and rhodamine, respectively (FIG. 4a). The half-time of release of the maximum releasable material was estimated to be 15 h for the shell and 46 h for the core. The diffusivity of rhodamine inside the PLGA nanoparticle matrix was estimated to be 4×10^−10 cm2/s, which was approximately 104 times lower than that in water, while that of bodipy in the shell was reduced by only 5 times compared to that in water. […] This is illustrated in the distinct phases of dominant fluxes over time (FIG. 4b).
A Finite Element (FE) method was used to model drug diffusion. The model included partitioning conditions at the surfaces, in this case between the core and the surrounding fluid. Thus, aside from the incremental-iterative system of mass balance equations (Kojic et al., 2008; Ziemys et al., 2011; Kojic et al., 2011):
the partitioning condition was included ΔNs/ΔNf=ΔCs/Δf=P Here, M and K are element mass and diffusion matrices, ΔC represents nodal concentration increments, Q^ext and Q^tnt are external and internal nodal mass fluxes; ΔNs and ΔNf are number of molecules of solid and fluid (per FE node) passing during time step Δt, and ΔCs and ΔCf are the corresponding concentration changes at boundary nodes with partitioning property; P is partitioning coefficient; and i specifies the equilibrium iteration counter. The important material parameter in the above balance equation is the diffusion coefficient D entering the diffusion matrix K:
[formula] where NI, NJ are interpolation functions and V is element volume. […]

[5] = Release of rapamycin and paclitaxel from nested nanoparticles; type: physicochemical; conditions: rapamycin in outer shell, paclitaxel in polymeric core
Excerpt: FIG. 14. Nested nanoparticles containing both rapamycin and paclitaxel release drug in a time and sequential fashion.

[6] = initial timepoints leading up to 3 h, bodipy in QAβ-CD shell, rhodamine in PLGA core

Compound: Rhodamine
- Area fraction of fluorophore in tumor ([1]; 3 h after intravenous nested nanoparticles): ratiometrically similar amounts
- Area fraction: amount of fluorophore in tumor ([1]; 96 h after intravenous nested nanoparticles): increase
- Dwater (diffusivity in water) [2]: 4.10^−6 cm^2/s
- Cumulative release from nested nanoparticles ([3]; "by this same timepoint" (12 h or 48 h, not clear)): ~6%
- Cumulative release from nested nanoparticles ([3]; in 96 h): 34%
- Cumulative release from nested nanoparticles [3, 6]: 3%
- Time after which rhodamine flux overtook the flux of bodipy ([4]; fluxes of release from nested nanoparticles): > 24 h
- Diffusivity inside the PLGA nanoparticle matrix ([4]; model estimate): 4×10^−10 cm2/s

Compound: O=C(COc1ccc(/C=C/C2=[N+]3C(=Cc4ccc(-c5cccs5)n4[B-]3(F)F)C=C2)cc1)NCCCCCC(=O)ON1C(=O)CCC1=O [bodipy]
- Area fraction of fluorophore in tumor ([1]; mouse, in vivo, iv): ratiometrically similar amounts
- Area fraction: amount of fluorophore in tumor ([1]; mouse, in vivo, iv): decreased significantly
- Fluorophore in tumor tissue ([1]; mouse, in vivo, iv): marked decrease
- Time after which release plateaus [3]: > 48 h
- Cumulative release from nested nanoparticles ([3]; by 6 h): 34%
- Cumulative release from nested nanoparticles ([3]; by 12 h): 50%
- Cumulative release from nested nanoparticles [3, 6]: 7%
- Reduction of diffusivity inside material compared to that in water ([4]; rhodamine in PLGA matrix, bodipy in shell): 5 times

Compound: CC(=O)O[C@H]1C(=O)[C@@]2(C)[C@H]([C@H](OC(=O)c3ccccc3)[C@]3(O)C[C@H](OC(=O)[C@H](O)[C@@H](NC(=O)c4ccccc4)c4ccccc4)C(C)=C1C3(C)C)[C@]1(OC(C)=O)CO[C@@H]1C[C@@H]2O [paclitaxel]
- Release from nested nanoparticles [5]: slow and prolonged release

Source: patent publication US10076509B2, “Nested particles and the use thereof for coordinated delvery of active agents” (Board of Regents, the University of Texas System, priority 2015, dated 2018)
